Source: patent publication US6576670B1, “Use of a 5HT2A and 5HT2A/C receptor antagonist for treating snoring and high resistance syndrome of upper anatomical airways” (Sanofi—Synthelabo, priority 1998, dated 2003)
Read-outs that look alike come from different tables or passages of the source.

Key:
[1] = decerebrated newborn rats; cited from earlier work
[2] = decerebrated newborn cats; high doses; cited from earlier work
5HT2 receptor [3] = conditions: in vivo; cited from earlier work
5HT1B receptor = 5HT1B receptor (Homo sapiens, UniProt P28222); conditions: cited from earlier work
Sequence of 5HT1B receptor (P28222 whole entry): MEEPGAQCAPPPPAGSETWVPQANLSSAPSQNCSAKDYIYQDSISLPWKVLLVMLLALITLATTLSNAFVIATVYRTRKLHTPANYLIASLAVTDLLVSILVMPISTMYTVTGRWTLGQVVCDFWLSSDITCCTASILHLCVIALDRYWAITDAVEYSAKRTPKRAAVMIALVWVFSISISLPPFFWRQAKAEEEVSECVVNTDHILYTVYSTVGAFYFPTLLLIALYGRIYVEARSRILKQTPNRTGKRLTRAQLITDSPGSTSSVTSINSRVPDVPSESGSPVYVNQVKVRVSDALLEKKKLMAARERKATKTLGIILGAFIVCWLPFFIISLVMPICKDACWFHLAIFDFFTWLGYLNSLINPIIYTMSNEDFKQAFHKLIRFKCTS

[4] = system: upper airway high resistance syndrome; assay: double blind clinical study versus placebo in upper airway high resistance syndrome; type: in vivo, human; conditions: patients; gelatin capsule, for example 5 mg, daily with the evening meal
Experimental: The effect of compound A is determined during a clinical study carried out according to a double blind design versus placebo in which patients with upper airway high resistance syndrome characterized by the presence of respiratory efforts with repeated wakefulness or microwakefulness and clinical symptoms such as diurnal somnolence and/or hypertension and/or fatigue and/or morning headache and/or nycturia, and the like took part. One gelatin capsule containing an active dose of compound A, for example 5 mg, is administered daily with the evening meal.

5HT2A receptor = 5HT2A receptor (Homo sapiens, UniProt P28223); conditions: cited from earlier work
Sequence of 5HT2A receptor (P28223 whole entry): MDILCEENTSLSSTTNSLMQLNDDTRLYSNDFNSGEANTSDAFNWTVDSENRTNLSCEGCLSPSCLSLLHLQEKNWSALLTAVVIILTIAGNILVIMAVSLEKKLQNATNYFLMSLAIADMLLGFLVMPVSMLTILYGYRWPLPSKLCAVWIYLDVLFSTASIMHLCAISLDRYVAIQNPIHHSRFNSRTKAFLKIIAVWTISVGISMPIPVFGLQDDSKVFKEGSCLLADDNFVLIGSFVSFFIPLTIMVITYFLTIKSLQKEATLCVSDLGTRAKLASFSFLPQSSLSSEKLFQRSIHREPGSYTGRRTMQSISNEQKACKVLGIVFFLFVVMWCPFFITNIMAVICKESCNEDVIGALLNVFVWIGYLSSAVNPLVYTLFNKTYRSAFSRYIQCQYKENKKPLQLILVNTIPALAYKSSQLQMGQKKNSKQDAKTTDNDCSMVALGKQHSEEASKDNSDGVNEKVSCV

5HT1A receptor = molecular target: T1, 5HT1A receptor (Homo sapiens, UniProt P08908); conditions: cited from earlier work
T1 sequence (P08908 1-422): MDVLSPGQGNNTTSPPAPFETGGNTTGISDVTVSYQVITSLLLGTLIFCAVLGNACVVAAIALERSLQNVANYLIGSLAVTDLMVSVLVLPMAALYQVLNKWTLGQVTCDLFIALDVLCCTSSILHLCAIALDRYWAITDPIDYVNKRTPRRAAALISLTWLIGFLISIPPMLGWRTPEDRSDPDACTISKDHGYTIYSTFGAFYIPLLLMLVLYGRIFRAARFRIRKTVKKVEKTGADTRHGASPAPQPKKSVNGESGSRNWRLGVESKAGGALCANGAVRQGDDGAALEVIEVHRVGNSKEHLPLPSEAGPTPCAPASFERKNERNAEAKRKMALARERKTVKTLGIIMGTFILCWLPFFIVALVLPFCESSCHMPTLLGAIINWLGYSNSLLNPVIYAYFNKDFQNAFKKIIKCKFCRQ

5HT2 receptor [5] = conditions: rodents; cited from earlier work
5HT1D receptor = conditions: cited from earlier work
5HT2C receptor = molecular target: T2, 5HT2C receptor (Homo sapiens, UniProt P28335); conditions: cited from earlier work
T2 sequence (P28335 33-458): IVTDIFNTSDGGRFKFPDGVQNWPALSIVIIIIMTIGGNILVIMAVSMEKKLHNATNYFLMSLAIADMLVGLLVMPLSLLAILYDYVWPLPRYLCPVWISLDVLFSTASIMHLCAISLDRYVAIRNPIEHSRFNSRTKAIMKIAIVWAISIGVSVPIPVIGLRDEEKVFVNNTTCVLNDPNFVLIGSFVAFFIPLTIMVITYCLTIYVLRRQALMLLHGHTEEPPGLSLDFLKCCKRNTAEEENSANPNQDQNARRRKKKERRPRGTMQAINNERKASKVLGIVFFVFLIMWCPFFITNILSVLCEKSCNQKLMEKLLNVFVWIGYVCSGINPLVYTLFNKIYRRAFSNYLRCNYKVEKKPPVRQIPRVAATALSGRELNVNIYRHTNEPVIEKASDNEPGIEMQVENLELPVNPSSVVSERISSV

[6] = molecular target: T3, rat stomach fundus (5HT2B) (Rattus norvegicus, UniProt P30994); conditions: isolated tissue; indicates 5HT2A specificity versus 5HT2B; cited from earlier work
T3 construct: from tissue; host or cells: rat stomach fundus (isolated tissue)
T3 sequence (P30994 whole entry): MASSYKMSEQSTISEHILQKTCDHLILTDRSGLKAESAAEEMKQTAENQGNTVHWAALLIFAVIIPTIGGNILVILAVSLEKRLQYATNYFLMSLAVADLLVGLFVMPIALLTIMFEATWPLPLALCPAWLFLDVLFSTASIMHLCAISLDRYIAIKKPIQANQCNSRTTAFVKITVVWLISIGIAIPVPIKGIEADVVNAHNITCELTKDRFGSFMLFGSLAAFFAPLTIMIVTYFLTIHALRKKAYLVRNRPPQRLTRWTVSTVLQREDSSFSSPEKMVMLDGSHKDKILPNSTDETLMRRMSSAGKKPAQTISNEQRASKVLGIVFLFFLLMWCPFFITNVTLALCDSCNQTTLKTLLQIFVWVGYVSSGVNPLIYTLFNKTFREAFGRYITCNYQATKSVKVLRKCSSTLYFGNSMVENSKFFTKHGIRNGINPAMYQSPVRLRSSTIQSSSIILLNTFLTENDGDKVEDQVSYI

spinal 5HT2 receptors = conditions: newborn rat tissue preparations in vitro, cited from earlier work
slow wave sleep = assay: sleep study in young healthy subjects; type: in vivo, human; conditions: young (18 to 35 years old) healthy subjects
5HT2 receptor [7] = conditions: rats; cited from earlier work
5HT2 receptors = conditions: administered systemically; English bulldog; cited from earlier work

NCCc1c[nH]c2ccc(O)cc12 [5-hydroxytryptamine]
apnea after administration [1]: no apnea | apnea after administration [2]: induced prolonged central apneas

CN(C)CCSc1nc2ccccc2cc1-c1ccccc1 [ICI 169 369]
slow wave sleep time (5HT2 receptor [3]): regulate or increase

CN(C)CCO/N=C(/C=C/c1ccc(O)cc1)c1ccccc1F [compound A, (1Z,2E)-1-(2-fluorophenyl)-3-(4-hydroxyphenyl)prop-2-en-1-one-O-(2-dimethylaminoethyl)oxime hemifumarate]
affinity for the 5HT1B receptor (5HT1B receptor): no affinity | clinical symptoms [4]: reduction | number of wakings or microwakings [4]: marked reduction | respiratory efforts [4]: marked reduction | antagonism of the 5HT2A receptor (5HT2A receptor): antagonist which is specific for the 5HT2A receptor | affinity for the 5HT1A receptor (5HT1A receptor): no affinity | binding in the brain (5HT2 receptor [5]): predominantly binds to the regions of the brain containing the 5HT2 receptor | affinity for the 5HT1D receptor (5HT1D receptor): no affinity | affinity for the 5HT2C receptor (5HT2C receptor): moderate affinity | activity on rat stomach fundus [6]: absence of activity | depressant effect of 5-hydroxytryptamine on the activity of the hypoglossal nerve (spinal 5HT2 receptors): inhibits | tonic cervical activity induced by 5-hydroxytryptamine (spinal 5HT2 receptors; pretreatment): prevents or significantly reduces | paradoxical sleep (slow wave sleep): not being modified | stages 1 and 2 of slow wave sleep (slow wave sleep): slightly reduced | duration of stages 3 and 4 of slow wave sleep (slow wave sleep; from the dose of 1 mg): doubling

O=C(c1ccc(F)cc1)C1CCN(CCn2c(=O)[nH]c3ccccc3c2=O)CC1 [ketanserin]
apnea induced by 5-HT (5HT2 receptor [7]): inhibit | increase in pulmonary resistance induced by 5-HT (5HT2 receptor [7]): inhibit

Cc1nc2sccn2c(=O)c1CCN1CCC(=C(c2ccc(F)cc2)c2ccc(F)cc2)CC1 [ritanserin]
activity of the diaphragm (5HT2 receptors): slight reduction | activity of the dilatory muscle of the upper respiratory tracts (5HT2 receptors): marked reduction | slow wave sleep time (5HT2 receptor [3]): regulate or increase
